Where two headings read alike, the source gives them in different places.
Experiments:
olfactory epithelium = experiment: Height (thickness) of olfactory epithelium after 3-methylindole damage, H&E staining; assay type: in vivo, Sprague-Dawley rats; conditions: rats, 3-methylindole 150 mg/kg i.p., drug 10 mg/kg oral daily; for height of olfactory epithelium: time point not printed (first sampling, fourth day), mean±SD
Protocol: (§1) To collect the olfactory tissues of the test group, the reference group and the control group, the test animals of the three groups were sacrificed on the fourth day, the seventh day, the fourteenth day and the twenty eighth day after the treatment with 3-methylindole. Six test animals were sacrificed each time.
(§2) H&E staining of the tissue obtained from Example 1-2 was performed by treating the paraffin block cut into a thickness of 4 μm via the above trimming and microtomy steps of Example 1-2 with a hematoxylin solution (Zymed, USA) and an eosin solution (eosin Y, Sigma, USA). More particularly, the H&E staining was performed as follows.
(§3) The paraffin block cut into a thickness of 4 μm as described in Example 1-2, i.e. the tissue specimen, was deparaffinized by repeating a xylene treatment cycle (dipping the tissue into 100% xylene twenty times) three times, was subjected to rehydration and staining with a hematoxylin solution for 5 minutes, and then was washed thoroughly with flowing water for 15 minutes. The washed tissue specimen was subjected to differential staining in 0.25% eosin solution for 40 seconds. After the differential staining, the tissue specimen was treated with an increasing amount of alcohol from a lower concentration to a higher concentration (i.e. 50%, 70%, 95% and 100% alcohol) for 1 hour at each concentration to further carry out dehydration. The dehydrated tissue specimen was passed through xylene three times and was encapsulated by covering it with a cover slide.
(§4) To observe damage to or recovery of the olfactory mucous membrane epithelia, the heights and arrangements of the epithelia in the test groups were compared to each other after carrying out H&E staining. To perform the comparison of the heights of the olfactory epithelia, the height of the olfactory epithelium in each test group was measured by taking a photograph of the olfactory mucous membrane at both upper sides of the nasal septum at a magnitude of 200×, wherein the average height of the olfactory mucous membrane epithelium was determined by using an Image J Program (NIH). Also, to perform the comparison of the heights of the olfactory epithelia, columnar arrangement corresponding to the arrangement of the olfactory epithelial cells in each test group was determined.
After measuring the heights of the olfactory epithelia, statistical analysis of the results was performed by using the above mentioned Anova test with Bonferroni's correction.

[1] = tested on: olfactory epithelial cells; experiment: Columnar arrangement grade of olfactory epithelial cells after 3-methylindole damage, H&E staining; assay type: in vivo, Sprague-Dawley rats; conditions: grade 1 (not arranged) to 3 (well arranged), drug 10 mg/kg oral daily
Protocol: as §1, §2, §3, §4
Herein, as the grade number increases, a higher degree of regeneration is made in the olfactory mucous membranes.
Additionally, columnar arrangement of the olfactory epithelial cells in each group was determined. The columnar arrangement of each group is shown in FIG. 3 as a grade evaluated according to the above criteria.

olfactory receptor cells = conditions: grade 0 to 4, higher = more regeneration, drug 10 mg/kg oral daily
Protocol: As test animals, female white Sprague-Dawley rats (Orient Co., Korea) having a body weight of 100-150 g were used. […] The test animals were raised in raising chambers for one week.
The test animals in the test group and the reference group were subjected to intraperitoneal injection of 150 mg/kg (body weight of each test animal) of 3-methylindole (3-MI) so that their olfactory epithelia were damaged. […] To the test animals in the reference group, 10 mg/kg (body weight of each test animal) of a steroid formulation, i.e. prednisolone, dissolved in 1 cc of saline was orally administered according to the same protocol as the test group. Additionally, to the test animals in the control group, the same amount (1 cc) of saline was administered after the olfactory epithelia were damaged, according to the same protocol as the test group.
To observe the distribution of the olfactory receptor cells, immunoreactivity to protein gene product 9.5 (PGP 9.5) known to exist specifically in the olfactory nerve cells was investigated.
The immunohistological staining was performed by using a Histostain-Plus kit (Zymed, San Francisco, USA). The paraffin block cut into a thickness of 4 μm, i.e. the tissue specimen was positioned on a slide coated with poly-L-lysine and was subjected to rehydration by using a decreasing amount of alcohol gradually from 100% alcohol to distilled water. The rehydrated tissue specimen was introduced into heated 10 mM citrate buffer (pH 5.0, Sigma, USA) and was further heated in a microwave oven twice, for 5 minutes each time. Next, the heated tissue specimen was removed from the microwave oven, cooled in the 10 mM citrate buffer for 20 minutes, washed with distilled water, allowed to react with 0.05M Tris-HCl buffer (Tris buffered saline, TBS) containing 3% H2O2 added thereto for 20 minutes to remove the activity of the endogenous peroxidase, and then was washed with 0.05M Tris-HCl buffered saline three times. After removing the activity of the endogenous peroxidase, the washed tissue specimen was treated with 0.1% Triton X-100 (USB, Ohio, USA) for 15 minutes, and further washed with 0.05M Tris-HCl buffered saline three times. After the treatment with 0.1% Triton X-100, the washed tissue specimen was allowed to react with a blocking reagent (10% normal goat serum) for 30 minutes to inhibit non-specific antigen-antibody reactions. […]

[2] = fourteen days after 3-methylindole
[3] = seven days after 3-methylindole
[4] = twenty eight days after 3-methylindole

SMILES	thickness of olfactory epithelium (olfactory epithelium; [2])	thickness of olfactory epithelium (olfactory epithelium; [3])	height of olfactory epithelium (olfactory epithelium)	thickness of olfactory epithelium (olfactory epithelium; [4])	average grade of columnar arrangement of olfactory epithelial cells ([1]; four days after 3-methylindole)	average grade of columnar arrangement of olfactory epithelial cells [1, 2]	average grade of columnar arrangement of olfactory epithelial cells [1, 4]	average PGP 9.5 immunostaining grade (olfactory receptor cells; four days after 3-methylindole)	average PGP 9.5 immunostaining grade (olfactory receptor cells; [2])	average PGP 9.5 immunostaining grade (olfactory receptor cells; [3])	average PGP 9.5 immunostaining grade (olfactory receptor cells; [4])	average grade of columnar arrangement of olfactory epithelial cells [1, 3]
C[C@]12C=CC(=O)C=C1CC[C@@H]1[C@@H]2[C@@H](O)C[C@@]2(C)[C@H]1CC[C@]2(O)C(=O)CO [prednisolone]	60.5±11.6 μm	21.1±13.4 μm	9.5±4.7 μm	72.2±21.8 μm	0.9±0.3	1.8±0.5	2.5±0.4	0.5±0.67	2.42±1.38	0.92±0.79	1.75±1.22	
CC(C)c1c(C(=O)Nc2ccccc2)c(-c2ccccc2)c(-c2ccc(F)cc2)n1CC[C@@H](O)C[C@@H](O)CC(=O)O [atorvastatin]	58.6±16.3 μm	56.1±26.9 μm	17.4±15.1 μm	63.9±20.2 μm	1.0±0.5	1.7±0.7	2.8±0.5					1.7±0.3
